In patent US7700284B2, “Reporter transcription unit populations and kits comprising same” (Attagene, Inc., priority 2004, dated 2010):

Legend:
[1] = target: GR RTU (Gal4DBD-GR fusion) (Homo sapiens, UniProt P04150); settings: HEK293, 10 uM, 6 hrs induction, versus non-induced cells
[2] = tested on: NF-κB RTU; test: Multiplexed RTU reporter profiling in transfected HEK293 cells, NF-κB RTU; settings: HEK293, 100 u per ml, 6 hrs stimulation, 11-RTU library
[3] = tested on: metal-sensitive MTΔ RTU; test: Multiplexed RTU reporter profiling in transfected HEK293 cells, MTΔ RTU; settings: HEK293, 100 μM, 6 hrs stimulation, 11-RTU library
[4] = tested on: Elk-1 TAD RTU (ERK1/2 pathway); test: MAPK pathway TAD RTU profiling in HEK293 cells, Elk-1 TAD RTU; format: cell-based, human; settings: HEK293, PMA 10 uM, 6 hours induction, versus control cells
[5] = tested on: ATF2 TAD RTU; test: MAPK pathway TAD RTU profiling in HEK293 cells, ATF2 TAD RTU; format: cell-based, human; settings: HEK293, PMA 10 uM, 6 hours induction
[6] = tested on: c-Jun TAD RTU; test: MAPK pathway TAD RTU profiling in HEK293 cells, c-Jun TAD RTU; format: cell-based, human; settings: HEK293, PMA 10 uM, 6 hours induction

GR RTU (Gal4DBD-GR fusion), sequence (P04150 486-777): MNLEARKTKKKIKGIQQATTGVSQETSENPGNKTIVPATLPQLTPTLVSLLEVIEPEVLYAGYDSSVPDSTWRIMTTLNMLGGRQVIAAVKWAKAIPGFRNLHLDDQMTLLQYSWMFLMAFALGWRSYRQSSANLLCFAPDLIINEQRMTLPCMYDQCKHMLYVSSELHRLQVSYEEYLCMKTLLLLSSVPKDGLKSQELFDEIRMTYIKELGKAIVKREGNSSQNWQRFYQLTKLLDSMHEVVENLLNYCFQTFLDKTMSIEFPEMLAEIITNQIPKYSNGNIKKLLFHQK

**Q.** dexamethasone [Dexamethazone] was tested. Which “increase of reporter peak produced by GR RTU” value [1] did it give?
**A.** 10 fold

**Q.** How did the “activation of NF-κB RTU (stimulated versus nonstimulated cells)” value [2] turn out when “IL-1β: Human recombinant IL-1β purchased from Roche; NF-κB inducer” was run?
**A.** specifically activated

**Q.** With [Cl-].[Cl-].[Zn+2] [ZnCl2] as the compound, how does the “induction of MTΔ RTU (stimulated versus nonstimulated cells)” value [3] read?
**A.** induced

**Q.** What does the source list for CCCCCCCCCCCCCC(=O)O[C@@H]1[C@@H](C)[C@@]2(O)[C@@H](C=C(CO)C[C@@]3(O)C(=O)C(C)=C[C@@H]23)[C@@H]2C(C)(C)[C@]12OC(C)=O [PMA, 4α-Phorbol 12-myristate 13-acetate]?
**A.** activation of the Elk-1 TAD RTU [4]: ~20 fold; activity of ATF2 TAD RTU [5]: remained unchanged; activity of c-Jun TAD RTU [6]: remained unchanged
